Assay results published in paper PMC7154053, “Chemical, Metabolic, and Cellular Characterization of a FtsZ Inhibitor Effective Against Burkholderia cenocepacia” (Frontiers in Microbiology, 2020).

Legend:
Format in all cases: cell-based, Burkholderia cenocepacia
[1] = system: B. cenocepacia J2315; experiment: Time-lapse microscopy, single-cell analysis in microfluidic device
Method: B. cenocepacia J2315 was cultured over-night in Middlebrook 7H9 broth, supplemented with 10% (v/v) DS enrichment (20 g dextrose, 8.5 g sodium chloride in 1 L water) and 5% (v/v) of a casamino acids solution (10 g casamino acids in 100 ml water). Cells were diluted 10-fold in the same fresh 7H9 medium, and 5 μl of the diluted cell suspension were inoculated into a custom-made microfluidic hexa-device, as previously described (Manina et al., [2019]). Silicone tubing (0.76 mm ID) was connected to each inlet and outlet ports of the hexa-device to enable medium circulation. Two 50 ml syringes were connected to the inlet tubing, and prewarmed 7H9 medium was pumped through the microfluidic device at 15 μl/min. The outlet tubing were inserted into a waste receptacle containing bleach. […] Bacteria were imaged in phase contrast, using a UPLFLN100XO2/PH3/1.30 objective (Olympus) and a high-speed sCMOS camera, with the help of an automated epifluorescence inverted microscope (DeltaVision Elite, GE Healthcare). The microscope was equipped with an environmental chamber maintained at 37°C. Images were recorded at 20-min intervals and up to 46 h. Exposure conditions were as follows: phase 50% T, 150 ms. In each experiment, 190 XY fields were imaged. The same experimental set-up was carried out twice.
Manual segmentation of individual cells and analysis of image stacks were performed using the ImageJ 1.52a software. The Selection Brush Tools was used to draw polygons corresponding to the shape of individual cells and to extract the cell planar area (μm^2). Measurements of the cell area were repeated throughout the generation time of individual cells, to calculate the growth rate by fitting an exponential curve.
Biphasic killing represents the typical pattern of drug persistence, whereby the initial linear mortality of the population is followed by a second phase where a subpopulation of cells is able to endure inhibitory drug concentrations in the absence of genetic mutations (Van den Bergh et al., [2017]). In contrast to drug-resistant cells, which continue to replicate in the presence of the drug, drug-persistent cells either derive from pre-existing non-growing cells or slow down their growth during drug exposure, and their progeny is killed with kinetics similar to that of the initial population (Van den Bergh et al., [2017]; Balaban et al., [2019]). […] To examine the C109 killing dynamics of B. cenocepacia at the single-cell level, we carried out a time-lapse microscopy experiment, divided into several steps. Wild type B. cenocepacia J2315 cells were first seeded into a microfluidic device (Manina et al., [2019]), and perfused with prewarmed 7H9 medium for 3 h, to allow the cells to adapt to the microfluidic environment. […] Cells were then perfused with C109-free 7H9 medium for 12 h, enabling the recovery and expansion of surviving cells. […] During the time-lapse imaging, cells were monitored every 20 min for a total of 46 h. The total number of cells, the single-cell area, and the number of division and lysis events were measured during each step of the experiment.

[2] = system: B. cenocepacia FCF19; experiment: Checkerboard assay with efflux pump inhibitor PaβN MC-207.110; details: Burkholderia cenocepacia, FCF19; read-out: MIC in the presence of MC-207.110, FCF19
Method: (§1) The microtiter plates were incubated at 37°C for 48 (for B. cenocepacia) or 24 h (for all the other strains) and growth was determined by the resazurin method (Martin et al., [2006]). A solution of resazurin sodium salt (Sigma Aldrich) was prepared at 0.01% in distilled water and filter-sterilized. Thirty microliter of resazurin solution were added to each well after 1 or 2 days of incubation at 37°C, and the microtiters were re-incubated at the same temperature for 4 h. The MIC was defined as the lowest concentration of the drug that prevented a change in color from blue to pink, which indicates bacterial growth. […] Three independent biological replicates were used for each MIC determination.

[3] = system: B. cenocepacia FCF22; experiment: as above; details: Burkholderia cenocepacia, FCF22; read-out: MIC in the presence of MC-207.110, FCF22
Method: as §1

In the case of `COC(=O)CSc1ccc2nsnc2c1[N+](=O)[O-]` [C109, methyl [(4-nitro-2,1,3-benzothiadiazol-5-yl)thio]acetate], the “elongated cells that resumed normal growth during washout (possible persistent cells)” value ([1]; 8 of 3,000 elongated cells formed during first exposure) is reported as 0.27%, the “cells died from lysis, first treatment” value ([1]; C109 100 μg/ml (12.5X-MIC), 4 h) is reported as 70% and the “cells still able to grow with considerable filamentation, first treatment” value ([1]; C109 12.5X-MIC, 4 h) is reported as 3.5%. For the same compound, the “cells that stopped to divide (sensitive), second treatment” value ([1]; C109 12.5X-MIC, 24 h) was 94%, the “decline in cell population, second treatment” value ([1]; C109 12.5X-MIC, 24 h) was 92% and the “cells with elongated phenotype, second treatment” value ([1]; C109 12.5X-MIC, 24 h, of the total cell number) was ~6%. The “filamentous cells that started again to divide during washout” value ([1]; C109 washout with fresh medium) was 30%, the “increase of cell area, cells dying by lysis” value ([1]; first treatment) was 2 fold and the “increase of cell area, filamentous cells” value ([1]; first treatment) was “up to 5 fold”. The “increase of cell area, elongated cells” value ([1]; second treatment, 8–10 μm^2) was “up to 10 fold”, the MIC [2] was 8 µg/mL and the MIC [3] was 16 µg/mL.
